Data on two compounds can be found in patent publication US20100204182A1, “ECTONUCLEOTIDASE INHIBITORS” (RHEINISCHE FRIEDRICH-WILHELMS-UNIVERSITAT BONN, priority 2006, published 2010).

Structures are written as SMILES.

The target of one assay is T1, human NTPDase1 (Homo sapiens, UniProt P49961).
T1 sequence (P49961 1-510): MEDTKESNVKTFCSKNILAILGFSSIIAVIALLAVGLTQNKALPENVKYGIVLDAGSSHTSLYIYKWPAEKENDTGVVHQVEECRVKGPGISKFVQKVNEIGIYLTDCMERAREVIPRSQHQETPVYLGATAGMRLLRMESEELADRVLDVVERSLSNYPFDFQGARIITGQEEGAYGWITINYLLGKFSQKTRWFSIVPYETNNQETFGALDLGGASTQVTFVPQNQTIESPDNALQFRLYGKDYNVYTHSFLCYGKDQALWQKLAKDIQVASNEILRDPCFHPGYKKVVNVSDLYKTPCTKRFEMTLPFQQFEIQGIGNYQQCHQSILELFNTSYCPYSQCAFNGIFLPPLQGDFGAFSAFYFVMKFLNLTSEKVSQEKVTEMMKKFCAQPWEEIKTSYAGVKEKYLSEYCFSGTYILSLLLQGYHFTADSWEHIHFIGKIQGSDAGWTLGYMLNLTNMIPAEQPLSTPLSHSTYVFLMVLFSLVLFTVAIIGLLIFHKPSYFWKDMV
The assay can be described thus: NTPDase inhibition assay by capillary electrophoresis (CE), NTPDase1. The conditions noted are these: ATP 320 μM; for Ki: CE method, Km 17 μM, read-out: NTPDase1 Ki [μM] ± SEM. It is filed as biochemical. The method, boiled down: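 Recombinant or native human NTPDase was run with 320 μM ATP in Hepes buffer pH 7.4 (NaCl, KCl, MgCl2, CaCl2) at 37° C for 15 min, stopped by heating at 99° C. Products were quantified by capillary electrophoresis (UV 210 nm, UMP internal standard). IC50 from 6-8 concentrations was converted to Ki by Cheng-Prusoff.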

The target of the next assay is hP2Y12 (Homo sapiens, UniProt Q9H244). The experiment in a line: Inhibition of [3H]PSB-0413 binding at hP2Y12. As to conditions: mean ± SEM, read-out: hP2Y12 % Inhibition of [^3H]PSB-0413 Binding at 10 μM, n = 3. How it is done:
In table 2 inhibition data of selected examples at human P2Y receptor subtypes were collected. It can be seen that no compound was identified that inhibited P2Y receptors at high concentrations of 100 μM and 10 μM, respectively.

A further assay deals with rP2Y6 (Rattus norvegicus, UniProt Q63371). The assay can be described thus: Inhibition of UDP binding at rP2Y6. The conditions noted are these: read-out: rP2Y6 % inhibition of UDP binding at 100 μM, n = 3, mean ± SEM.
The next assay addresses T2, human NTPDase2 (Homo sapiens, UniProt Q9Y5L3).
T2 sequence (Q9Y5L3 1-495): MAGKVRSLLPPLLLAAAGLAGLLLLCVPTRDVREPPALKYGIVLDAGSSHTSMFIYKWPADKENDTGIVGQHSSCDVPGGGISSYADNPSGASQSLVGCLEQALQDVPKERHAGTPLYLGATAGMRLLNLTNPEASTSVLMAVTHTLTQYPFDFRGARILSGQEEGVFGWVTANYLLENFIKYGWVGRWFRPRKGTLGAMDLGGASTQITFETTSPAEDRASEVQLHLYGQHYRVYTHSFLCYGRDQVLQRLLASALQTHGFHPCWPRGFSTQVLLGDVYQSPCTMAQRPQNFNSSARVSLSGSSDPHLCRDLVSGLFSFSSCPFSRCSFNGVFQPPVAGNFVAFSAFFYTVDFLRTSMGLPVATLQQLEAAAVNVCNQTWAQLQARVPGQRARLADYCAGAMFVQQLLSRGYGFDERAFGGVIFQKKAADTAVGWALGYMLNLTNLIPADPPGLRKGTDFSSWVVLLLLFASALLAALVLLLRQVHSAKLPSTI
The assay can be described thus: NTPDase inhibition assay by capillary electrophoresis (CE), NTPDase2. Format: biochemical. As to conditions: for Ki: human NTPDase2, CE method, ATP 320 μM, Km 70 μM, read-out: NTPDase2 Ki [μM] ± SEM.

rP2Y6, sequence (Q63371 whole entry): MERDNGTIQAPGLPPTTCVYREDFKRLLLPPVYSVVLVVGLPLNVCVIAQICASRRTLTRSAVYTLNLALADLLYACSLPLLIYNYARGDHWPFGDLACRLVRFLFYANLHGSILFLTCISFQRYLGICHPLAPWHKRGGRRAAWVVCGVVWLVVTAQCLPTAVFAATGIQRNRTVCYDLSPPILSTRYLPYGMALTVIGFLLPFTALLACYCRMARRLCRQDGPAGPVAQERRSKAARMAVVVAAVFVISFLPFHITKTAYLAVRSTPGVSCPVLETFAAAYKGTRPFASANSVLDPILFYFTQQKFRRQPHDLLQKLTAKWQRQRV
hP2Y12, sequence (Q9H244 whole entry): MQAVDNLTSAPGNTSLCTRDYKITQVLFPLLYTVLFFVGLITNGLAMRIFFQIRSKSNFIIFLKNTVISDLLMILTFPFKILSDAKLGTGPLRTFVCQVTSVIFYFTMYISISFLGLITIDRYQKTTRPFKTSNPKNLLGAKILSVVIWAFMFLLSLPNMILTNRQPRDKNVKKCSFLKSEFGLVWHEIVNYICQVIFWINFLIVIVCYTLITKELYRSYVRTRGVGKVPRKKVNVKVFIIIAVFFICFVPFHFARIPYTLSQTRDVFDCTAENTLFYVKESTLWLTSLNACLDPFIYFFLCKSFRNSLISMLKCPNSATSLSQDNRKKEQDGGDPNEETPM

Consider `CCOP(=O)(Cc1ccc(NC(=O)CNC(=O)[C@H]2O[C@@H](n3ccc(=O)[nH]c3=O)C(O)C2O)cc1)OCC` (stereo in doubt) [Compound 2, 4-[2-((2S,3R,4S,5R)-5-(2,4-Dioxo-3,4-dihydropyrimidin-1(2H)-yl)-3,4-dihydroxy-tetrahydrofurane-2-carboxamido)ethaneamido]benzylphosphonic acid diethylester], for which the inhibition (as a rule, the change of the read-out against control, counted positive when it falls) at 1000 µM at human NTPDase1 (1 mM compound) was 50%. In addition, the values for the Ki at human NTPDase1 and on human NTPDase2 were greater than 50 µM and 8.2 ± 2.1 µM, respectively. In addition, on hP2Y12, the inhibition at 10 µM came to 2 ± 6%. The inhibition at 100 µM on rP2Y6 was -10 ± 10%. The “inhibitor of NTPDase (in words)” value at human NTPDase2 (in words, compare Tab. 1) is “excellent inhibitor”.
Regarding `CCOP(=O)(Cc1ccc(NC(=O)CCNC(=O)[C@H]2O[C@@H](n3ccc(=O)[nH]c3=O)C(O)C2O)cc1)OCC` (stereo in doubt) [Compound 3, 4-[3-((2S,3R,4S,5R)-5-(2,4-Dioxo-3,4-dihydropyrimidin-1(2H)-yl)-3,4-di-hydroxy-tetrahydrofurane-2-carboxamido)propaneamido]benzylphosphonic acid diethylester], the Ki (as a rule, the dissociation constant of the complex between target and ligand, obtained from inhibition or displacement) amounted to 55.2 ± 2.6 µM on human NTPDase1 and 173 ± 17 µM at human NTPDase2. In addition, the inhibition at 10 µM at hP2Y12 turned out to be 9 ± 4%. In addition, the inhibition at 100 µM on rP2Y6 came out at 7 ± 7%.
